Measured values as given in patent publication US20160257697A1, “THIOPHENE-SUBSTITUTED TETRACYCLIC COMPOUNDS AND METHODS OFUSE THEREOF FOR THE TREATMENT OF VIRAL DISEASES” (priority 2013, published 2016).
Like-named read-outs stand apart in the source and are kept apart here.

Assays:
Assay in all cases: microbe, parasite or virus in culture
Format in all cases: cell-based, Hepatitis C virus (HCV)
Details in all cases: Replicon Assay A
HCV replicon 1A = system: HCV replicon 1A
Summary of the method: (§1)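 Compound is added to replicon cells plated at 2000 cells/well (0.5% DMSO, 5% FBS). After 3 days the cells are washed and lysed, and HCV RNA and cyclophilin mRNA are quantified by multiplex RT-PCR against a standard curve of known replicon total RNA.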

HCV replicon 2B = system: HCV replicon 2B
Summary of the method: as §1

HCV replicon 1AY93H = system: HCV replicon 1AY93H
Summary of the method: as §1

[1] = read-out: 2B IC50, HCV replicon 2B
[2] = read-out: 1A Y93H IC50, HCV replicon 1A Y93H
[3] = Hepatitis C virus, HCV replicon 1A
[4] = read-out: 1A Y93H IC50, replicon 1AY93H
[5] = Hepatitis C virus, read-out: 2B IC50 (nM), replicon 2B
[6] = Hepatitis C virus, read-out: 1A Y93H IC50 (nM), replicon 1AY93H

COC(=O)N[C@H](C(=O)N1C[C@H](F)C[C@H]1c1ncc(-c2ccc3c(c2)OC(c2ccc(C)s2)n2c-3cc3cc(-c4cnc([C@@H]5C[C@H]6C[C@H]6N5C(=O)[C@@H](NC(=O)OC)C(C)C)[nH]4)ccc32)[nH]1)C(C)C (single isomer, unassigned) [Compound 708]
IC50 (HCV replicon 1A; HCV replicon 1A): 0.018 nM
IC50 (HCV replicon 2B; [1]): 3.05 nM
IC50 (HCV replicon 1AY93H; [2]): 0.042 nM

COC(=O)N[C@H](C(=O)N1CCC[C@H]1c1ncc(-c2cc(F)c3c(c2)OC(c2cc(C)c(C)s2)n2c-3cc3cc(-c4cnc([C@@H]5C[C@H]6C[C@H]6N5C(=O)[C@@H](NC(=O)OC)C(C)C)[nH]4)ccc32)[nH]1)C(C)C (single isomer, unassigned) [Compound 508]
IC50 (HCV replicon 1A; [3]): 0.0409 nM
IC50 (HCV replicon 2B; [1]): 7.09 nM
IC50 (HCV replicon 1AY93H; [2]): 0.608 nM

COC(=O)N[C@H](C(=O)N1CCC[C@H]1c1ncc(-c2cc(F)c3c(c2)OC(c2cc4c(s2)CCCO4)n2c-3cc3cc(-c4cnc([C@@H]5CCCN5C(=O)[C@@H](NC(=O)OC)C5CCOC(C)(C)C5)[nH]4)ccc32)[nH]1)C(C)C (single isomer, unassigned) [Compound 412]
IC50 (HCV replicon 1A; HCV replicon 1A): 0.0094 nM
IC50 (HCV replicon 2B; [1]): 0.005 nM
IC50 (HCV replicon 1AY93H; [2]): 0.008 nM

COC(=O)N[C@H](C(=O)N1CCC[C@H]1c1ncc(-c2ccc3c(c2)OC(c2ccc(C4CC4)s2)n2c-3c(C)c3cc(-c4cnc([C@@H]5CCCN5C(=O)[C@@H](NC(=O)OC)C(C)C)[nH]4)ccc32)[nH]1)C(C)C (single isomer, unassigned) [Compound 21]
IC50 (HCV replicon 1A; Hepatitis C virus, replicon 1A): 0.0019 nM
IC50 (HCV replicon 2B; read-out: 2B IC50, replicon 2B): 0.26 nM
IC50 (HCV replicon 1AY93H; [4]): 0.22 nM

COC(=O)NC(C(=O)N1CCC[C@H]1c1ncc(-c2cc(F)c3c(c2)OC(c2ccc(C4CC4)s2)n2c-3cc3cc(-c4cnc([C@@H]5CCCN5C(=O)[C@@H](NC(=O)OC)C(C)C)[nH]4)ccc32)[nH]1)C(C)(C)F (single isomer, unassigned) [Compound 70]
IC50 (HCV replicon 1A; Hepatitis C virus, replicon 1A): 0.0188 nM
IC50 (HCV replicon 2B; read-out: 2B IC50, replicon 2B): 24.2 nM
IC50 (HCV replicon 1AY93H; [4]): 10.5 nM

COC(=O)NC(C(=O)N1CCC[C@H]1c1ncc(-c2ccc3c(c2)cc2n3C(c3ccc(C4CC4)s3)Oc3cc(-c4cnc([C@@H]5CCCN5C(=O)[C@@H](NC(=O)OC)C(C)C)[nH]4)cc(F)c3-2)[nH]1)C1C[C@@H](C)O[C@H](C)C1 (single isomer, unassigned) [Compound 193]
IC50 (HCV replicon 1A; replicon 1A): 0.0256 nM
IC50 (HCV replicon 2B; read-out: 2B IC50, replicon 2B): 18.6 nM
IC50 (HCV replicon 1AY93H; [4]): 4.75 nM

COC(=O)NC(C(=O)N1CCC[C@H]1c1ncc(-c2ccc3c(c2)cc2n3C(c3ccc(C4CC4)s3)Oc3cc(-c4cnc([C@@H]5CCCN5C(=O)[C@@H](NC(=O)OC)C(C)C)[nH]4)cc(F)c3-2)[nH]1)C1C[C@H](C)O[C@@H](C)C1 (single isomer, unassigned) [Compound 404]
IC50 (HCV replicon 1A; replicon 1A): 0.0022 nM
IC50 (HCV replicon 2B; read-out: 2B IC50, replicon 2B): 1.67 nM
IC50 (HCV replicon 1AY93H; [4]): 1.25 nM

COC(=O)N[C@H](C(=O)N1CCC[C@H]1c1ncc(-c2cc(F)c3c(c2)OC(c2ccc(C(=O)N(C)C)s2)n2c-3cc3cc(-c4cnc([C@@H]5CCCN5C(=O)[C@@H](NC(=O)OC)C(C)C)[nH]4)ccc32)[nH]1)C(C)C (single isomer, unassigned) [Compound 103]
IC50 (HCV replicon 1A; Hepatitis C virus, replicon 1A): 0.0056 nM
IC50 (HCV replicon 2B; read-out: 2B IC50, replicon 2B): 1.71 nM
IC50 (HCV replicon 1AY93H; [4]): 5.15 nM

COC(=O)N[C@H](C(=O)N1CCC[C@H]1c1ncc(-c2ccc3c(c2)OC(c2cc(C)c(C)s2)n2c-3cc3cc(-c4cnc([C@@H]5C[C@H]6C[C@H]6N5C(=O)[C@@H](NC(=O)OC)C(C)C)[nH]4)ccc32)[nH]1)C(C)C (single isomer, unassigned) [Compound 502]
IC50 (HCV replicon 1A; HCV replicon 1A): 0.0121 nM
IC50 (HCV replicon 2B; [1]): 0.0575 nM
IC50 (HCV replicon 1AY93H; [2]): 0.575 nM

COC(=O)NC(C(=O)N1CCC[C@H]1c1ncc(-c2ccc3c(c2)cc2n3C(c3ccc(C4CC4)s3)Oc3cc(-c4cnc([C@@H]5CCCN5C(=O)[C@@H](NC(=O)OC)C(C)C)[nH]4)cc(F)c3-2)[nH]1)C1C2COCC21 (single isomer, unassigned) [Compound 338]
IC50 (HCV replicon 1A; Hepatitis C virus, replicon 1A): 0.0024 nM
IC50 (HCV replicon 2B; read-out: 2B IC50, replicon 2B): 1.52 nM
IC50 (HCV replicon 1AY93H; [4]): 0.357 nM

COC(=O)N[C@H](C(=O)N1C[C@H](F)C[C@H]1c1nc(-c2ccc3c(c2)OC(c2ccc(C)s2)n2c-3cc3cc(-c4c[nH]c([C@@H]5C[C@H]6C[C@H]6N5C(=O)[C@@H](NC(=O)OC)C5CCOCC5)n4)ccc32)c[nH]1)C1CCOCC1 (single isomer, unassigned) [Compound 730]
IC50 (HCV replicon 1A; HCV replicon 1A): 0.067 nM
IC50 (HCV replicon 2B; [1]): 0.13 nM
IC50 (HCV replicon 1AY93H; [2]): 0.06 nM

CCc1ccc(C2Oc3cc(-c4cnc([C@@H]5CCCN5C(=O)[C@@H](NC(=O)OC)C(C)C)[nH]4)cc(F)c3-c3cc4cc(-c5cnc([C@@H]6C[C@H]7C[C@H]7N6C(=O)C(NC(=O)OC)C6C[C@@H](C)O[C@@H](C)C6)[nH]5)ccc4n32)s1 (single isomer, unassigned) [Compound 194]
IC50 (HCV replicon 1A; Hepatitis C virus, replicon 1A): 0.0019 nM
IC50 (HCV replicon 2B; [5]): 0.63 nM
IC50 (HCV replicon 1AY93H; [6]): 0.095 nM

COC(=O)N[C@H](C(=O)N1C2C[C@@H]2C[C@H]1c1nc(-c2ccc3c(c2)cc2n3C(c3ccc(Cl)s3)Oc3cc(-c4c[nH]c([C@@H]5C[C@H]6C[C@H]6N5C(=O)[C@@H](NC(=O)OC)C(C)C)n4)ccc3-2)c[nH]1)C(C)C (mixture of isomers) [Compound 710]
IC50 (HCV replicon 1A; [3]): 0.05 nM
IC50 (HCV replicon 2B; Hepatitis C virus, read-out: 2B IC50, HCV replicon 2B): 1.08 nM
IC50 (HCV replicon 1AY93H; Hepatitis C virus, read-out: 1A Y93H IC50, HCV replicon 1A Y93H): 0.2 nM

COC(=O)N[C@H](C(=O)N1CCC[C@H]1c1ncc(-c2cc(F)c3c(c2)OC(c2cc(C)c(C)s2)n2c-3cc3cc(-c4cnc([C@@H]5C[C@@H](F)CN5C(=O)[C@@H](NC(=O)OC)C(C)C)[nH]4)ccc32)[nH]1)C(C)C (single isomer, unassigned) [Compound 514]
IC50 (HCV replicon 1A; HCV replicon 1A): 0.0474 nM
IC50 (HCV replicon 2B; [1]): 48.5 nM
IC50 (HCV replicon 1AY93H; [2]): 0.272 nM

COC(=O)NC(C(=O)N1CCC[C@H]1c1ncc(-c2ccc3c(c2)cc2n3C(c3ccc(C4CC4)s3)Oc3cc(-c4cnc([C@@H]5C[C@H]6C[C@H]6N5C(=O)[C@@H](NC(=O)OC)C(C)C)[nH]4)cc(F)c3-2)[nH]1)C1C[C@@H](C)O[C@@H](C)C1 (single isomer, unassigned) [Compound 537]
IC50 (HCV replicon 1A; HCV replicon 1A): 0.00398 nM
IC50 (HCV replicon 2B; [1]): 1.1 nM
IC50 (HCV replicon 1AY93H; [2]): 0.114 nM

CCc1ccc(C2Oc3cc(-c4cnc([C@@H]5C[C@H]6C[C@H]6N5C(=O)[C@@H](NC(=O)OC)C(C)C)[nH]4)cc(F)c3-c3cc4cc(-c5cnc([C@@H]6C[C@H]7C[C@H]7N6C(=O)[C@@H](NC(=O)OC)C(C)C)[nH]5)ccc4n32)s1 (single isomer, unassigned) [Compound 50]
IC50 (HCV replicon 1A; Hepatitis C virus, replicon 1A): 0.0014 nM
IC50 (HCV replicon 2B; [5]): 1.39 nM
IC50 (HCV replicon 1AY93H; [6]): 0.0284 nM

COC(=O)NC(C(=O)N1CCC[C@H]1c1ncc(-c2ccc3c(c2)cc2n3C(c3ccc(C(C)C)s3)Oc3cc(-c4cnc([C@@H]5CCCN5C(=O)[C@@H](NC(=O)OC)C(C)C)[nH]4)cc(F)c3-2)[nH]1)C1C[C@@H](C)O[C@@H](C)C1 (single isomer, unassigned) [Compound 232]
IC50 (HCV replicon 1A; replicon 1A): 0.0027 nM
IC50 (HCV replicon 2B; read-out: 2B IC50, replicon 2B): 0.63 nM
IC50 (HCV replicon 1AY93H; [4]): 0.2 nM

COC(=O)N[C@H](C(=O)N1CCC[C@H]1c1ncc(-c2cc(F)c3c(c2)OC(c2ccc(C4CC4)s2)n2c-3c(F)c3cc(-c4cnc([C@@H]5CCCN5C(=O)[C@@H](NC(=O)OC)C(C)C)[nH]4)ccc32)[nH]1)C(C)C (single isomer, unassigned) [Compound 73]
IC50 (HCV replicon 1A; Hepatitis C virus, replicon 1A): 0.0016 nM
IC50 (HCV replicon 2B; [5]): 5.14 nM
IC50 (HCV replicon 1AY93H; [6]): 2.26 nM

COC(=O)NC(C(=O)N1CCC[C@H]1c1ncc(-c2ccc3c(c2)cc2n3C(c3ccc(C(C)C)s3)Oc3cc(-c4cnc([C@@H]5CCCN5C(=O)[C@@H](NC(=O)OC)C(C)C)[nH]4)cc(C)c3-2)[nH]1)C1C[C@@H](C)O[C@@H](C)C1 (single isomer, unassigned) [Compound 365]
IC50 (HCV replicon 1A; Hepatitis C virus, replicon 1A): 0.0027 nM
IC50 (HCV replicon 2B; read-out: 2B IC50, replicon 2B): 0.154 nM
IC50 (HCV replicon 1AY93H; [4]): 0.38 nM

COCC(C)(C)c1ccc(C2Oc3cc(-c4cnc([C@@H]5CCCN5C(=O)[C@@H](NC(=O)OC)C(C)C)[nH]4)cc(F)c3-c3cc4cc(-c5cnc([C@@H]6CCCN6C(=O)[C@@H](NC(=O)OC)C(C)C)[nH]5)ccc4n32)s1 (single isomer, unassigned) [Compound 400]
IC50 (HCV replicon 1A; replicon 1A): 0.0017 nM
IC50 (HCV replicon 2B; read-out: 2B IC50, replicon 2B): 1.69 nM
IC50 (HCV replicon 1AY93H; [4]): 0.151 nM

CCc1ccc(C2Oc3cc(-c4cnc([C@@H]5CCCN5C(=O)C(NC(=O)OC)C5C[C@@H](C)O[C@@H](C)C5)[nH]4)cc(F)c3-c3cc4cc(-c5cnc([C@@H]6CCCN6C(=O)[C@@H](NC(=O)OC)C(C)C)[nH]5)ccc4n32)s1 (single isomer, unassigned) [Compound 157]
IC50 (HCV replicon 1A; replicon 1A): 0.0021 nM
IC50 (HCV replicon 2B; read-out: 2B IC50, replicon 2B): 2.8 nM
IC50 (HCV replicon 1AY93H; [4]): 2.32 nM

CCc1ccc(C2Oc3cc(-c4cnc([C@@H]5CCCN5C(=O)[C@@H](NC(=O)OC)C(C)C)[nH]4)cc(F)c3-c3cc4cc(-c5cnc([C@@H]6CCCN6C(=O)C(NC(=O)OC)C6CCOC(C)(C)C6)[nH]5)ccc4n32)s1 (single isomer, unassigned) [Compound 148]
IC50 (HCV replicon 1A; replicon 1A): 0.0919 nM
IC50 (HCV replicon 2B; read-out: 2B IC50, replicon 2B): 13.2 nM
IC50 (HCV replicon 1AY93H; [4]): 10.2 nM

CCc1ccc(C2Oc3cc(-c4cnc([C@@H]5CCCN5C(=O)[C@@H](NC(=O)OC)C(C)C)[nH]4)cc(C)c3-c3cc4cc(-c5cnc([C@@H]6CCCN6C(=O)C(NC(=O)OC)C6C[C@@H](C)O[C@@H](C)C6)[nH]5)ccc4n32)s1 (single isomer, unassigned) [Compound 544]
IC50 (HCV replicon 1A; HCV replicon 1A): 0.00833 nM
IC50 (HCV replicon 2B; [1]): 0.0319 nM
IC50 (HCV replicon 1AY93H; [2]): 0.29 nM

COC(=O)N[C@H](C(=O)N1CCC[C@H]1c1ncc(-c2cc(F)c3c(c2)OC(c2cc4c(s2)CCC(C)(C)O4)n2c-3cc3cc(-c4cnc([C@@H]5CCCN5C(=O)[C@@H](NC(=O)OC)C(C)C)[nH]4)ccc32)[nH]1)C(C)C (single isomer, unassigned) [Compound 398]
IC50 (HCV replicon 1A; replicon 1A): 0.0015 nM
IC50 (HCV replicon 2B; read-out: 2B IC50, replicon 2B): 0.494 nM
IC50 (HCV replicon 1AY93H; [4]): 0.955 nM
